Experimental data from PMC7297817, “Pharmacological Characterization of a Betaine/GABA Transporter 1 (BGT1) Inhibitor Displaying an Unusual Biphasic Inhibition Profile and Anti-seizure Effects” (Neurochemical Research, 2020).
Entries after “also recorded” stand apart in the source; their conditions may differ. Where two headings read alike, the source gives them in different places.

Tests used:
H1 = target: T1, H1 (Homo sapiens, UniProt P35367); assay: NIMH PDSP radioligand binding, H1; conditions: radioligand [3H]pyrilamine, n=4
T1 construct: purchased NIMH Psychoactive Drug Screening Program (PDSP)

NET = target: T2, NET (Homo sapiens, UniProt P23975); assay: NIMH PDSP radioligand binding, NET; conditions: radioligand [3H]nisoxetine, n=4
T2 construct: purchased NIMH Psychoactive Drug Screening Program (PDSP)

Beta1 = target: T3, Beta1 (Homo sapiens, UniProt P08588); assay: NIMH PDSP radioligand binding, Beta1; conditions: radioligand [125I]pindolol, n=4
T3 construct: purchased NIMH Psychoactive Drug Screening Program (PDSP)

Alpha2A = target: T4, Alpha2A (Homo sapiens, UniProt P08913); assay: NIMH PDSP radioligand binding, Alpha2A; conditions: radioligand [3H]rauwolscine, n=4
T4 construct: purchased NIMH Psychoactive Drug Screening Program (PDSP)

hBGT1 = target: T5, hBGT1 (Homo sapiens, UniProt P48065); assay: [3H]GABA uptake at hBGT1 stably expressed in CHO cells; format: cell-based
T5 construct: expressed in transfected cells; host or cells: tsA201 (transient)
T5 sequence (P48065 1-614): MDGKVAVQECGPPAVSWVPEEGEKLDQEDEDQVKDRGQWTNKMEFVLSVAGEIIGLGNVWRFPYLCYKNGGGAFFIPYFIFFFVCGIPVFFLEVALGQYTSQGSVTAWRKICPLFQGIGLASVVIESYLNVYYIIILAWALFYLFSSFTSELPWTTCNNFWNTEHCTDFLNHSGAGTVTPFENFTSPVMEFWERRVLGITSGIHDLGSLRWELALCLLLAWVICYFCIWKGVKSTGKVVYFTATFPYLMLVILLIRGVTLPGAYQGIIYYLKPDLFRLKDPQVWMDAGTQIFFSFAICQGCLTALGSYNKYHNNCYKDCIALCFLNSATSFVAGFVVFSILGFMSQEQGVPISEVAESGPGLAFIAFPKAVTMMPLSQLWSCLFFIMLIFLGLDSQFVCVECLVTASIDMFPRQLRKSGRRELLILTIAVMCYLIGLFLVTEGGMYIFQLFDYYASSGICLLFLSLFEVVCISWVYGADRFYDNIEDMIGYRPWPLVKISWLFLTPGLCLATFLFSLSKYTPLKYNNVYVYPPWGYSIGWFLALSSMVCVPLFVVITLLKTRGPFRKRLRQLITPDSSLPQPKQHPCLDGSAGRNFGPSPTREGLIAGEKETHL
Protocol: (§1) The HEK-293 and Flp-In CHO cell lines stably expressing mouse (m) and human (h) GATs, respectively, have been described previously and were cultured accordingly. The tsA201 cell line was used for transient expression while the MDCK II cell line express BGT1 endogenously. Both cell lines were cultured as described. tsA201 cells were transfected with DNA constructs (8 μg per 10 cm dish if not otherwise mentioned) using 40 μL PolyFect transfection reagent according to the manufacturer’s protocol (Qiagen, Venlo, Netherlands). The DNA constructs encoding hBGT1, hGAT1-3 [36], the mutated constructs hBGT1 Q299 and hGAT3 L314Q described previously, and hBGT Y453A were synthesized and sequence validated by Genscript (NJ, USA).
(§2) The [^3H]GABA competition uptake assay was performed as previously described. A minor change, however, was introduced for uptake in MDCK II cells, in which 100 nM [^3H]GABA was used for a 15 min incubation period at 37 °C instead of 30 nM [^3H]GABA and 3 min incubation. Studies related to the inhibition curves with GABA and BPDBA at hBGT1 were obtained both with and without the presence of 10 μM ATP during the [^3H]GABA uptake assay.
(§3) The [^3H]GABA uptake data was normalized to the percentage of total uptake in the individual experiments in the presence of the lowest compound concentration or no compound present. Data presented is the pooled data of at least three independent experiments with three technical replicates. Concentration–response curves (CRCs) were fitted with GraphPad Prism (version 8.2.1, Yosemite, GraphPad Software, San Diego, CA, USA) by non-linear regression to the sigmoidal concentration response model: Y=Bottom+(Top-Bottom)/1+10^LogIC50-X∗nH where Top is the Top plateau, Bottom is the Bottom plateau, X is the logarithm of the concentration of the compound, LogIC50 is the concentration giving a response halfway between Top and Bottom,and nH is the Hill slope.
(§4) The best fit for CRCs obtained with the [^3H]GABA uptake assay was identified by the extra-sum-of-squares F test (for convenience referred to as F test).

KOR = target: T6, KOR (Homo sapiens, UniProt P41145); assay: NIMH PDSP radioligand binding, KOR; conditions: radioligand [3H]U69593, n=4
T6 construct: purchased NIMH Psychoactive Drug Screening Program (PDSP)

Sigma1 = Sigma1 (Cavia porcellus, UniProt Q60492); assay: NIMH PDSP radioligand binding, Sigma1; conditions: radioligand [3H]pentazocine(+), n=4
Protocol: IC50 values in μM (Ki μM)^a. The targets in bold were inhibited by >35% at 10 μM.

hGAT1 = target: T7, hGAT1 (Homo sapiens, UniProt P30531); assay: [3H]GABA uptake at hGAT1 stably expressed in CHO cells; format: cell-based; conditions: for IC50: CHO
T7 construct: expressed in transfected cells
Protocol: as §1, §2, §3, §4

DOR = target: T8, DOR (Homo sapiens, UniProt P41143); assay: NIMH PDSP radioligand binding, DOR; conditions: radioligand [3H]DADLE, n=4
T8 construct: purchased NIMH Psychoactive Drug Screening Program (PDSP)
T8 sequence (P41143 whole entry): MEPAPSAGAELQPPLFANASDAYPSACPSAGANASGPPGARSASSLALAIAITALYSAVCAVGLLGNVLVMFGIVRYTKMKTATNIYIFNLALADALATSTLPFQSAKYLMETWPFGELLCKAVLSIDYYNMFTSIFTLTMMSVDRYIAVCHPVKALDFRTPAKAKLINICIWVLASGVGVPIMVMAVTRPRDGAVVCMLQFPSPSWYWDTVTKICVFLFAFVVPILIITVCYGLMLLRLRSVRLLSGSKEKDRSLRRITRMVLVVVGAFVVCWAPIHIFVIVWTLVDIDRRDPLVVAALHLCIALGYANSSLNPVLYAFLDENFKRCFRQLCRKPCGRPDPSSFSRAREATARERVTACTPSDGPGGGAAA

T7 sequence (P30531 whole entry): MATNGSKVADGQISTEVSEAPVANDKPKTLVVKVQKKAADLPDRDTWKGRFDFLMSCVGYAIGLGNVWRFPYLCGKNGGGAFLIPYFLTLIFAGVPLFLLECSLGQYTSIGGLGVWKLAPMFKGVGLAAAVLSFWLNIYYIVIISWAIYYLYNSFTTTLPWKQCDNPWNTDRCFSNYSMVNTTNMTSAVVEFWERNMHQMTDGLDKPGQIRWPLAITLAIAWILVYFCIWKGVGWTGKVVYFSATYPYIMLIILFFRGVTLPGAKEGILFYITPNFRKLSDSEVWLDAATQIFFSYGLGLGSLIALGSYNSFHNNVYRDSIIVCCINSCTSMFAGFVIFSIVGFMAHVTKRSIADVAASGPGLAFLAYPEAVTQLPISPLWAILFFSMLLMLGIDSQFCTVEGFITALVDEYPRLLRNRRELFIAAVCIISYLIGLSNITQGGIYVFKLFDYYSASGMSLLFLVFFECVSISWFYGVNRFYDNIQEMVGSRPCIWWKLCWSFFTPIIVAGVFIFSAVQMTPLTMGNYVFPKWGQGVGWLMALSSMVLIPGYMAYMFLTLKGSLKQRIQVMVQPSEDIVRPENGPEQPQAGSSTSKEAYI
Chain of Sigma1 (Q60492 whole entry): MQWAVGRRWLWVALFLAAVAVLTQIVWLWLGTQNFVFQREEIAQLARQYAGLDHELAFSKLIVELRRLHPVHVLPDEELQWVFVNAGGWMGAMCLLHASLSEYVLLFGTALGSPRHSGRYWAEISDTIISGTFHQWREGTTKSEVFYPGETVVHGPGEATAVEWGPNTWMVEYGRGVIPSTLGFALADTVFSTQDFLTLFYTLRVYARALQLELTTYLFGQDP
T4 sequence (P08913 whole entry): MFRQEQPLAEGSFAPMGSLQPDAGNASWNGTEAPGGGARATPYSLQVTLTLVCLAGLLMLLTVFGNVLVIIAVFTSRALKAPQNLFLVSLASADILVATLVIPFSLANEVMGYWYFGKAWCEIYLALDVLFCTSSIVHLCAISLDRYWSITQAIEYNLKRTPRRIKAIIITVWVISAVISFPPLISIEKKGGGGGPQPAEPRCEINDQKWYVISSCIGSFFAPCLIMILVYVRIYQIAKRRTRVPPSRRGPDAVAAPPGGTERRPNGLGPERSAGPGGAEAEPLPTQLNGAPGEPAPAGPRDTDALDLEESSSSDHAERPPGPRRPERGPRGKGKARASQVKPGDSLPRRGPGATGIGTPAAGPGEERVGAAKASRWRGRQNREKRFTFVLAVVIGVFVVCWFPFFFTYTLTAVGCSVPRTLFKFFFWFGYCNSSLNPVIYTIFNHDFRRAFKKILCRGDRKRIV
T1 sequence (P35367 whole entry): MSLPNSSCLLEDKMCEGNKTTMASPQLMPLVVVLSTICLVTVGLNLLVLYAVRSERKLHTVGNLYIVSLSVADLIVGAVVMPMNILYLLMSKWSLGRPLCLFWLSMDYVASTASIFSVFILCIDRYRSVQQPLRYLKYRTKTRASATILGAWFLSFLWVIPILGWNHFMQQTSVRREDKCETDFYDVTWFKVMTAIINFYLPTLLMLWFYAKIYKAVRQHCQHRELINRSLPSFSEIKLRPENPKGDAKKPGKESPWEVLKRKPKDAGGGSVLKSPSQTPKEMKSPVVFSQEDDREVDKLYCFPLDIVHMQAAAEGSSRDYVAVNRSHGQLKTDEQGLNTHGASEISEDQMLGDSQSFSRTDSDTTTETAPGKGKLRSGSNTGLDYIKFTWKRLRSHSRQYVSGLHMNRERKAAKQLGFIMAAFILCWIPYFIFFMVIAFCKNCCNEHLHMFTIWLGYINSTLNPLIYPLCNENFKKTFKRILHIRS
T6 sequence (P41145 whole entry): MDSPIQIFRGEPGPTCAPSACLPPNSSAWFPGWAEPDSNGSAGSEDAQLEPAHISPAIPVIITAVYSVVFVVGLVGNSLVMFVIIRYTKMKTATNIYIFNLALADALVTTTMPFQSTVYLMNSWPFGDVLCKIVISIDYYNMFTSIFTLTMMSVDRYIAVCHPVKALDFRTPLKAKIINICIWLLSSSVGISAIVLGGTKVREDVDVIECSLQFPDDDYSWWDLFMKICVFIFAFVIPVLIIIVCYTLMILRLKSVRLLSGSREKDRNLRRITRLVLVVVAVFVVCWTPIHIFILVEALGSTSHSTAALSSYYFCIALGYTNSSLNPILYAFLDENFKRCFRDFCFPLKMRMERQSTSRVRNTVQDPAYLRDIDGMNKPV
T2 sequence (P23975 whole entry): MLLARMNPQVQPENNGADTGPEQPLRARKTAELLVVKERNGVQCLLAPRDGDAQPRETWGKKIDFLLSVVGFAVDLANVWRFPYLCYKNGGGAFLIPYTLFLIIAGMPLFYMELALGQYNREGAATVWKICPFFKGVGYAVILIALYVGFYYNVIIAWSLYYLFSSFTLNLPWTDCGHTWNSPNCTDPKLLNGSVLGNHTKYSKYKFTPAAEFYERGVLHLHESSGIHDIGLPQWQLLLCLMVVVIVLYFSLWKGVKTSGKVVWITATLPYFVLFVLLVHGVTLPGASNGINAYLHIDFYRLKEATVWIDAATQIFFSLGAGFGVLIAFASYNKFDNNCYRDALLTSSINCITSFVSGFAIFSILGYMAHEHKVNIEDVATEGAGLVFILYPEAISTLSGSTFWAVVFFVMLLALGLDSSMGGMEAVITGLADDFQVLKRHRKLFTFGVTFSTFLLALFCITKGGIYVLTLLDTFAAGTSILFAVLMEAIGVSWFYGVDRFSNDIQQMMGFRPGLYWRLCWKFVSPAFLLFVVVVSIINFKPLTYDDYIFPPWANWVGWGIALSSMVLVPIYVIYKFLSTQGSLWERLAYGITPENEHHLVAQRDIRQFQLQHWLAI
T3 sequence (P08588 whole entry): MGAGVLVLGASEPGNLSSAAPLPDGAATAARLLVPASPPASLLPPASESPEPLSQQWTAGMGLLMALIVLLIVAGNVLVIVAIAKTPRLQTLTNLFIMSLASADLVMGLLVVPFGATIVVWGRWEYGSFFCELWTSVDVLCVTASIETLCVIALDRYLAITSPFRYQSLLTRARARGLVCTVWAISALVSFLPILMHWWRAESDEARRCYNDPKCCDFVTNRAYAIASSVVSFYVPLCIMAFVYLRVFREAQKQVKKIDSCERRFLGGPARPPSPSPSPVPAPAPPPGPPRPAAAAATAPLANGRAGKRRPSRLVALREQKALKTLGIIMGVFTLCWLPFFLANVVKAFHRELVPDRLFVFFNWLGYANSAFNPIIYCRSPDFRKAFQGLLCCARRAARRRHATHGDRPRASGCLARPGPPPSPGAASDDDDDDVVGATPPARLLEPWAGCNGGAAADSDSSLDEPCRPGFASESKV

Compound: Cc1ccsc1C(=CCCN(C)[C@H]1CCCC[C@H]1C(=O)O)c1sccc1C [SBV2-114, (1R,2S)-2-((4,4-bis(3-methylthiophen-2-yl)but-3-en-yl)(methyl)amino)cyclohexanecarboxylic acid]
- inhibition at 10 µM (H1): 51.2%
- inhibition at 10 µM (NET): 0.1%
- inhibition at 10 µM (Beta1): 37.9%
- inhibition at 10 µM (Alpha2A): 42.8%
- IC50 (hBGT1; IC50, high affinity component, biphasic fit, N=2 of four experiments, CHO): 0.05 µM
- Frac (hBGT1; biphasic fit, N=2, CHO): 0.10
- IC50 (hBGT1; pIC50 ± S.E.M., high affinity component, biphasic fit, N=2, CHO): 0.0513 µM
- Fit (hBGT1; preferred model, N=2): Biphasic
- IC50 (hBGT1; read-out: IC50, low affinity component, biphasic fit, N=2, CHO): 490 µM
- IC50 (hBGT1; single IC50, N=2, fit not given, CHO, read-out: IC50): 447 µM
- inhibition at 10 µM (KOR): 40.8%
- inhibition at 10 µM (Sigma1): 55.6%
- IC50 (hGAT1; ambiguous fit, N=2): 566 µM
- IC50 (hGAT1; monophasic fit, N=1): 476 µM
- Fit (hGAT1; preferred model per experiment): Ambiguous; also recorded: Monophasic
- inhibition at 10 µM (DOR): 36.6%
